Data reported in US11547112B2, “Solvents for agricultural applications and pesticide formulations” (Dow Global Technologies LLC, priority 2017, dated 2023).

Experiment: Solubility of pesticides in solvents (stepwise 2% increments of pesticide powder)
Details: highest concentration still dissolved, no more than 2% lower than actual solubility; for Solubility in Comparative Solvent B: solvent: diethylene glycol monoethyl ether; for Solubility in Comparative Solvent A: solvent: dimethyl sulfoxide (DMSO); for Solubility in Comparative Solvent C: solvent: ethyl 3-ethoxypropionate
Method: The solubility of various pesticides in these solvents are evaluated.
Each pesticide powder is added by solvent in 2% stepwise increments to the final pesticide concentration. Each pesticide reaches a concentration where the pesticide powder is not dissolved by the solvent.

Structure (SMILES)	Solubility in Comparative Solvent B [weight %]	Solubility in Comparative Solvent A [weight %]	Solubility in Comparative Solvent C [weight %]
COC(=O)N(OC)c1ccccc1COc1ccn(-c2ccc(Cl)cc2)n1 [Pyraclostrobin]	33.0	40.0	47.0
CCCCC(C#N)(Cn1cncn1)c1ccc(Cl)cc1 (stereo not drawn) [Myclobutanil]	46.0	56.7	39.0
CC(C)(C)C(O)(CCc1ccc(Cl)cc1)Cn1cncn1 (stereo not drawn) [Tebuconazole]	26.5	32.3	16.0
CC(C)(C)C(=O)C(Oc1ccc(Cl)cc1)n1cncn1 (stereo not drawn) [Triazolone]	35.7	43.3	32.0
